Consider 6 molecules from paper PMC6108829 (Environmental Health Perspectives, 2018).

The conditions of data set [1]: in vivo; cited from earlier work.
The conditions of data set [2]: mouse, in vivo; cited from earlier work.
A further data set concerns human liver microsomes. In words: Glucuronidation kinetics in pooled human liver microsomes (HPLC-UV). Particulars: for glucuronidation compared with the other analogs: at lower, physiologically relevant substrate concentrations, small intestine and liver (Figure 3B); for Hepatic glucuronidation vmax: in vitro value scaled with 32 mg protein/g liver, BPS: uncalibrated model. The protocol:
(§1) Pooled human liver microsomes ( 20mg/mL ) and pooled human intestinal microsomes ( 20mg/mL ) were from BD Biosciences. We first placed the reaction mixtures for 30 min on ice and then incubated them for 5 min at 37°C. The addition of uridine 5'-diphospho-glucuronic acid (Sigma-Aldrich) to a final concentration of 5 mM started the reaction. For the enzyme reactions, we used a temperature of 37°C; the incubation times differed, subject to the BP and microsome type regarded (Table 1). We terminated the glucuronidation reactions with the addition of 10μL perchloric acid (Merck). In the following step, we put the samples on ice for 15 min, centrifuged at 16,000×g for 10 min, and analyzed the supernatants using HPLC-UV.
(§2) We conducted the HPLC-UV analysis on an Agilent 1,100 series HPLC system (Agilent Technologies). For this, we injected 10μL of each sample onto a Poroshell 120 EC-C18 column ( 4.6×100mm , 2.7μm , Agilent Technologies) maintained at 40°C. The mobile phases were 0.1% formic acid (A) and acetonitrile (B). The elution of different BPs consisted of a linear gradient (see Table 2). We further analyzed the results with the GraphPad Prism software (version 5.04; GraphPad Software Inc.,) and selected the most suitable kinetic model (Michaelis-Menten or substrate inhibition, Equations 3 and 4), based on the curve fitting and the shape of the Eadie-Hofstee plots (see Figure S2).
(§3) Michaelis-Menten equation: (3) v=vmax[S]/Km+[S]
(§4) Substrate inhibition equation: (4) v=vmax[S]/Km+[S](1+[S]/Ksi )

Assay in data set [3]: as above
Particulars: human, pH 7.4. As to the method: as §1, §2, §3, §4

Data set [4] has as its system human intestinal microsomes. In words: Glucuronidation kinetics in pooled human intestinal microsomes (HPLC-UV). Particulars: for Glucuronidation in enterocytes vmax - used in basic model: scaled with 4.29 mg protein/kg BW; for Glucuronidation in enterocytes Ksi: substrate-inhibition kinetics. The protocol:
as §1, §2, §3, §4

Assay in data set [5]: as above
Particulars: human, pooled human intestinal microsomes, pH 7.4. The protocol: as §1, §2, §3, §4

The conditions of data set [6]: cited from earlier work; for logPow: ref Choi and Lee 2017; for pKa: ref SPARC 2011.
The subject of the next data set is estrogen receptor. The arrangement: method as in Kitamura et al. 2005. Particulars: ref Kitamura et al. 2005, cited from earlier work; for EC50: estrogenic potency.
Data set [7] in a line: Margin of exposure (MOE = EC50/Cmax) back-of-the-envelope calculation. The arrangement: species or system human.
For another data set, the system named is estrogen receptors. The arrangement: method as in Kitamura et al. 2005; Stossi et al. 2014. Particulars: ref Kitamura et al. 2005; Stossi et al. 2014; cited from earlier work.
On the set-up of data set [8]: method as in Dumont et al. 2011. Particulars: third subject (oldest volunteer); ref Dumont et al. 2011; cited from earlier work.
Details of data set [9]: method as in Oh et al. (2018). Particulars: ref Oh et al. (2018); cited from earlier work.
Where [10] appears, read: EC50 (Kitamura et al. 2005)/highest Cmax of basic PBPK model (Table 9).

Structures can show the parent of a compound that is named as a salt.

As for `CC(C)(c1ccc(O)cc1)c1ccc(O[C@@H]2O[C@H](C(=O)O)[C@@H](O)[C@H](O)[C@H]2O)cc1` [BPA-g, BPA glucuronide], in data set [1], the “AUC, mean (range), measured” value is recorded as 6.66 (5.52–8.34) nM*h for 1.5 h and the Cmax was 6.48 nM.

In the case of `CC(C)(c1ccc(O)cc1)c1ccc(OS(=O)(=O)O)cc1` [BPA-s, BPA sulfate], in data set [1], the “AUC, mean (range), measured” value is 3.61 (2.60–4.52) nM*h for 1.5 h and the highest concentration (Cmax) was 4.22 nM. Also, the “share of metabolites present in plasma” value in [2] is listed as 0.5–4.8%.

With `Oc1ccc(C(c2ccc(O)cc2)(C(F)(F)F)C(F)(F)F)cc1` [BPAF, bisphenol AF], in the data set with human liver microsomes, the “glucuronidation compared with the other analogs” value is “most effective” and the Hepatic glucuronidation vmax is reported as 5,660 nmol/h/g liver. In the data set on human liver microsomes (substrate-inhibition kinetics), the “Hepatic glucuronidation Ksi” value is recorded as 219,000 nM. The Km in data set [3] (pooled human liver microsomes) is 4.21 µM. In [4], the “Glucuronidation in enterocytes vmax - used in basic model” value (shortened to “Glucuronidation in enterocytes vmax”) came out at 107 nmol/h/g bw and the “Glucuronidation in enterocytes Ksi” value is given as 82,200 nM. Besides, the Km in data set [5] was determined as 1.83 µM. Besides, in data set [6], the logPow is 2.8 to 4.8 and the pKa was about 9.2. Besides, in the data set on estrogen receptor (from EC50 values), the “estrogenic potency, times higher than BPA” value is recorded as 13 times. Further, the “MOE in serum of females of childbearing age” value in data set [7] (2D-MC analysis, P95/P95) is listed as 1,860. In data set [7] (setting [10]), the MOE in gonads is 1,810. Further, in the data set with estrogen receptors, the “estrogenic potency, times higher than the potency of BPA” value is recorded as 7 to 13 times.

As for `Oc1ccc(Cc2ccc(O)cc2)cc1` [BPF, bisphenol F], the Hepatic glucuronidation vmax in the data set with human liver microsomes is 3,600 nmol/h/g liver. Further, the Km in data set [3] is 17.9 µM. In data set [4], the “Glucuronidation in enterocytes vmax” value came to 462 nmol/h/g bw and the “Glucuronidation in enterocytes Ksi” value is reported as 605,000 nM. Further, the Km in data set [5] came to 57 µM. The pKa in data set [6] is listed as about 7.6. For the same molecule, on estrogen receptor, the EC50 is 1000 nM.

In the case of `O=S(=O)(O)Oc1ccc(Cc2ccc(O)cc2)cc1` [BPF-s], the “share as major metabolite” value in [8] is listed as 75%.

Regarding `O=S(=O)(c1ccc(O)cc1)c1ccc(O)cc1` [BPS, bisphenol S], in the data set on human liver microsomes, the “glucuronidation compared with the other analogs” value is “least effective” and the Hepatic glucuronidation vmax is 26,500 nmol/h/g liver. For the same molecule, the Km in data set [3] was found to be 285 µM. In [4], the “Glucuronidation in enterocytes vmax” value came out at 563 nmol/h/g bw and the “Glucuronidation in enterocytes Ksi” value is given as 711,000 nM. In addition, the Km in data set [5] was determined as 354 µM. Also, the “half-life, times longer than the half-life of BPA” value in data set [9] is listed as 2.7 times. Also, in [6], the logPow is reported as 1.7–2.1 and the pKa is about 8.2. Also, on estrogen receptor, the EC50 is 1100 nM. In addition, the MOE in serum in data set [7] (setting [10]) is given as 2,440.

What is called Cmax is the peak of the concentration-time curve. As usually defined, the Km is the concentration of substrate that gives half-maximal velocity. The term pKa denotes the pH at which an ionisable group is half protonated. As usually defined, the EC50 is the concentration needed to bring the measured effect to its halfway point.
